The test system of test [1] is MCF-7. The test is described as follows: In vitro antiproliferative activity, SRB assay, MCF-7. The format is cell-based, human. The settings on record: for IC50: read-out: Antiproliferative activity IC50, MCF-7.
For test [2], the system named is LoVo. Description: In vitro antiproliferative activity, SRB assay, LoVo. The settings on record: for IC50: 72 h, read-out: Antiproliferative activity IC50, LoVo. The format is cell-based, human.
For test [3], the system named is LoVo/DX. The test is described as follows: In vitro antiproliferative activity, SRB assay, doxorubicin-resistant LoVo/DX. The format is cell-based, human. The settings on record: for IC50: 72 h; for Resistance index (RI): RI = IC50 LoVo/DX / IC50 LoVo.
Test [4] concerns A549. The test is described as follows: In vitro antiproliferative activity, SRB assay, A549. As to conditions: for IC50: read-out: Antiproliferative activity IC50, A549. The format is cell-based, human. (In general: In SRB staining, fixed cells bind dye roughly in proportion to their protein.)
In test [5] the test system is A549, MCF-7, LoVo, and LoVo/DX cells. Description: In vitro antiproliferative activity, SRB assay, summary over the tumor cell lines tested. The format is cell-based. As to conditions: Homo sapiens, read-out: IC50, span over all tumor cell lines tested. The source says: . Detailed information concerning antiproliferation assay can be found in Supplementary Materials. […]
neutralized with 4M NaOH to pH~10 and extracted four times with EtOAc. The organic layers were combined, washed with brine, dried over Na2SO4, filtered off and evaporated under reduced pressure. The residue was purified using column flash chromatography (silica gel; DCM/MeOH, 20/1 v/v) and next lyophilized from dioxane to give the pure product 3 as a yellow solid with a yield of 73%.
In vitro antiproliferative activity
Cell lines and culturing conditions
Four human cancer cell lines and one murine normal cell line were used to evaluate antiproliferative […]
adenocarcinoma (MCF-7), human colon adenocarcinoma cell lines sensitive and resistant to doxorubicin (LoVo) and (LoVo/DX) respectively, and normal murine embryonic fibroblast cell line (BALB/3T3). The A549 cell line was purchased from the European Collection of Authenticated Cell Cultures (ECACC, Salisbury, UK). The MCF-7, LoVo and LoVo/DX cell lines was purchased from American Type Culture Collection (ATCC, Manassas, VA, USA). All the cell lines are maintained in the Institute of Immunology and Experimental Therapy (IIET), Wroclaw, Poland. […]

Test [6] has as its system BALB/3T3. The test is described as follows: In vitro antiproliferative activity, SRB assay, normal fibroblasts BALB/3T3. The settings on record: normal murine embryonic fibroblast BALB/3T3, 72 h, mean ± SD. It counts as cell-based.
Setting [7] is: Homo sapiens, LoVo/DX, read-out: Antiproliferative activity IC50, LoVo/DX, doxorubicin-resistant subline LoVo/DX, 72 h, SRB, mean ± SD.
The mark [8] stands for this setting: read-out: Antiproliferative activity IC50, LoVo/DX, doxorubicin-resistant subline LoVo/DX, SRB, mean ± SD.

The structures appear in SMILES notation. Where two headings read alike, the source gives them in different places.

Regarding `CNc1ccc2c(cc1=O)[C@@H](NCCO)CCc1cc(OC)c(OC)c(OC)c1-2` [Compound 9], the IC50 was 10.1 ± 1.2 nM in test [1] (Homo sapiens, MCF7, 72 h); 5.6 ± 1.5 nM in test [2] (Homo sapiens, LoVo); 132 ± 37.5 nM in test [3] (setting [7]); 9.2 ± 2.2 nM in test [4] (Homo sapiens, A549, 72 h). The “Resistance index (RI)” value in test [3] amounted to 23.6.
As for `CNc1ccc2c(cc1=O)[C@@H](NCc1ccncc1)CCc1cc(OC)c(OC)c(OC)c1-2` [Compound 16], the IC50 in test [1] (Homo sapiens, MCF7, 72 h) came out at 9.6 ± 1.8 nM; in test [2] (Homo sapiens, LoVo), 5.2 ± 1.9 nM; in test [3] (setting [7]), 48.1 ± 14.5 nM; in test [4] (Homo sapiens, A549, 72 h), 8.9 ± 1.7 nM. Also, the “Resistance index (RI)” value in test [3] came to 9.3.
As for `CNc1ccc2c(cc1=O)[C@@H](N)CCc1cc(OC)c(OC)c(OC)c1-2` [Compound 3, N-deacetyl-10-methylamino-10-demethoxycolchicine], the IC50 in test [1] (Homo sapiens, MCF7, 72 h) was determined as 9.8 ± 4.5 nM; in test [2] (Homo sapiens, LoVo) it was 7.4 ± 2.7 nM; in test [4] (Homo sapiens, A549, 72 h), 8.6 ± 3.9 nM.
On to `CNc1ccc2c(cc1=O)[C@@H](NCCCCl)CCc1cc(OC)c(OC)c(OC)c1-2` [Compound 11], for which the IC50 in test [1] (Homo sapiens, MCF7, 72 h) was 7.6 ± 2.8 nM; in test [2] (Homo sapiens, LoVo) it was 1.3 ± 0.3 nM; in test [3] (setting [7]), 12.8 ± 3.3 nM; in test [4] (Homo sapiens, A549, 72 h), 8.4 ± 2.2 nM. Also, the “Resistance index (RI)” value in test [3] was 10.0.
In the same order, the values of `CCCCCCCCCCN[C@H]1CCc2cc(OC)c(OC)c(OC)c2-c2ccc(NC)c(=O)cc21` [Compound 7] are 75.2 ± 10.8 nM, 46.6 ± 15.5 nM, 99.5 ± 35.5 nM, 88.4 ± 3.2 nM and 2.1.
For the compound `CNc1ccc2c(cc1=O)C(NC(C)=O)CCc1cc(OC)c(OC)c(OC)c1-2` (stereo not shown) [Compound 2, 10-N-methylaminocolchicine], the IC50 stood at 1.2 ± 0.2 nM in test [2] (Homo sapiens, LoVo) and 7.2 ± 1.3 nM in test [4] (Homo sapiens, A549, 72 h).
Take `CNc1ccc2c(cc1=O)[C@@H](NCc1ccccc1Cl)CCc1cc(OC)c(OC)c(OC)c1-2` [Compound 14, N-(2-chlorobenzyl)-10-methylaminocolchicine]: the IC50 in test [1] (Homo sapiens, MCF7, 72 h) was 0.7 ± 0.4 nM; in test [2] (Homo sapiens, LoVo), 0.1 ± 0.02 nM; in test [3] (setting [7]), 1.6 ± 1 nM; in test [4] (Homo sapiens, A549, 72 h) it was 1.1 ± 0.7 nM; in test [5], 0.1 to 1.6 nM. Further, the “Selectivity index (SI), MCF-7” value in test [1] (SI = IC50 BALB/3T3 / IC50 MCF-7) came to 6.1. The “Selectivity index (SI), LoVo/DX” value in test [3] (SI = IC50 BALB/3T3 / IC50 LoVo/DX) stood at 2.8. Further, the “Potency relative to unmodified colchicine 1, LoVo/DX” value in test [3] (times more potent than 1 towards LoVo/DX) is “approx. 440 times”. Further, the “Selectivity index (SI), A549” value in test [4] (SI = IC50 BALB/3T3 / IC50 A549) was found to be 4.1.
Take `CNc1ccc2c(cc1=O)[C@@H](NCc1ccccc1)CCc1cc(OC)c(OC)c(OC)c1-2` [Compound 13]: the IC50 in test [1] (Homo sapiens, MCF7, 72 h) was 7.3 ± 4.4 nM; in test [2] (Homo sapiens, LoVo), 0.9 ± 0.4 nM; in test [3] (setting [7]), 6 ± 0.8 nM; in test [4] (Homo sapiens, A549, 72 h), 4.6 ± 1.8 nM. Besides, the “Resistance index (RI)” value in test [3] turned out to be 7.0.
In the case of `CNc1ccc2c(cc1=O)[C@@H](NCC(C)C)CCc1cc(OC)c(OC)c(OC)c1-2` [Compound 8], the IC50 is 9.7 ± 1.5 nM in test [1] (Homo sapiens, MCF7, 72 h); 7.8 ± 1 nM in test [2] (Homo sapiens, LoVo); not above 10 nM in test [3] (setting [7]); 8.5 ± 1.1 nM in test [3] (setting [8]); 9.6 ± 1.3 nM in test [4] (Homo sapiens, A549, 72 h). For the same compound, the “Resistance index (RI)” value in test [3] was determined as 1.1.
Turning to `CCCCN[C@H]1CCc2cc(OC)c(OC)c(OC)c2-c2ccc(NC)c(=O)cc21` [Compound 6], the IC50 in test [1] (Homo sapiens, MCF7, 72 h) was found to be 8.7 ± 3.1 nM; in test [2] (Homo sapiens, LoVo), 7.8 ± 1.3 nM; in test [3] (setting [7]), 13.3 ± 5.8 nM; in test [4] (Homo sapiens, A549, 72 h), 8.1 ± 2.6 nM. In test [3], the “Resistance index (RI)” value turned out to be 1.7.
Consider `CNc1ccc2c(cc1=O)[C@@H](NCc1ccc(O)cc1)CCc1cc(OC)c(OC)c(OC)c1-2` [Compound 15], for which the IC50 in test [1] (Homo sapiens, MCF7, 72 h) stood at 8.5 ± 0.9 nM; in test [2] (Homo sapiens, LoVo), 5.2 ± 0.5 nM; in test [3] (setting [7]), 72.2 ± 12.5 nM; in test [4] (Homo sapiens, A549, 72 h), 8.9 ± 1.4 nM. Also, in test [3], the “Resistance index (RI)” value was 13.9.
In the case of `CNc1ccc2c(cc1=O)[C@@H](NCc1cccs1)CCc1cc(OC)c(OC)c(OC)c1-2` [Compound 17], the IC50 in test [1] (Homo sapiens, MCF7, 72 h) was 9.3 ± 0.6 nM; in test [2] (Homo sapiens, LoVo), 0.9 ± 0.3 nM; in test [3] (setting [7]) it was not above 10 nM; in test [3] (setting [8]), 7.9 ± 1 nM; in test [4] (Homo sapiens, A549, 72 h), 9.4 ± 0.5 nM. For the same compound, the “Selectivity index (SI), LoVo” value in test [2] (SI = IC50 BALB/3T3 / IC50 LoVo) is on record as more than 3. Also, in test [3], the “Resistance index (RI)” value was 8.9.
As to `CNc1ccc2c(cc1=O)[C@@H](NCCC(F)(F)F)CCc1cc(OC)c(OC)c(OC)c1-2` [Compound 12], the IC50 in test [1] (Homo sapiens, MCF7, 72 h) came to 9 ± 1.7 nM; in test [2] (Homo sapiens, LoVo), 2.3 ± 1.3 nM; in test [3] (setting [7]), 8.2 ± 0.6 nM; in test [4] (Homo sapiens, A549, 72 h), 9.5 ± 0.2 nM. The “Resistance index (RI)” value in test [3] is listed as 3.6.
With `N.N.[Cl][Pt][Cl]` [Cisplatin, cisplatin, reference compound], the IC50 is 5810 ± 2610 nM in test [1] (human breast adenocarcinoma MCF-7, 72 h, SRB, mean ± SD); 5460 ± 1410 nM in test [2] (human colon adenocarcinoma LoVo, SRB, mean ± SD); 3970 ± 995 nM in test [6]; 5010 ± 1560 nM in test [3] (doxorubicin-resistant subline LoVo/DX, SRB, mean ± SD, read-out: Antiproliferative activity IC50, LoVo/DX); 4920 ± 1850 nM in test [4] (human lung adenocarcinoma A549, 72 h, SRB, mean ± SD). Also, in test [3], the “Resistance index (RI)” value was found to be 0.9.
On to `CCN[C@H]1CCc2cc(OC)c(OC)c(OC)c2-c2ccc(NC)c(=O)cc21` [Compound 4], for which the IC50 in test [1] (Homo sapiens, MCF7, 72 h) is 8.7 ± 3.3 nM; in test [2] (Homo sapiens, LoVo) it was 7.3 ± 2.5 nM; in test [3] (setting [7]) it was 62 ± 7.5 nM; in test [4] (Homo sapiens, A549, 72 h) it was 9.4 ± 3.2 nM. Besides, the “Resistance index (RI)” value in test [3] was determined as 8.5.
On to `CCCN[C@H]1CCc2cc(OC)c(OC)c(OC)c2-c2ccc(NC)c(=O)cc21` [Compound 5], for which the IC50 stood at 10.4 ± 0.6 nM in test [1] (Homo sapiens, MCF7, 72 h); 5 ± 0.1 nM in test [2] (Homo sapiens, LoVo); 17.2 ± 6.7 nM in test [3] (setting [7]); 10.5 ± 0.7 nM in test [4] (Homo sapiens, A549, 72 h). Besides, the “Resistance index (RI)” value in test [3] was found to be 3.5.
For `CNc1ccc2c(cc1=O)[C@@H](NCCC#N)CCc1cc(OC)c(OC)c(OC)c1-2` [Compound 10], the IC50 in test [1] (Homo sapiens, MCF7, 72 h) was found to be 7.5 ± 0.7 nM; in test [2] (Homo sapiens, LoVo) it was 2 ± 0.6 nM; in test [3] (setting [7]) it was 51.5 ± 8.6 nM; in test [4] (Homo sapiens, A549, 72 h), 9 ± 1 nM. Also, the “Resistance index (RI)” value in test [3] is recorded as 25.9.

The values are drawn from article PMC7435877 (Molecules, 2020).
